Assay results from patent publication US6166008A, “Treatment of schizophrenia with ampakines and neuroleptics” (Cortex Pharmaceuticals, Inc., priority 1998, dated 2000).
“Also recorded” adds a separate entry of the source. Structures can show the parent of a compound that is named as a salt.

Assays:
Adrenergic receptor = assay: Radioligand binding, [^3 H]-Prazosin
Source text: (§1) Table 2 presents the results of radioligand binding studies that show a lack of interaction between Ampakines and dopaminergic or serotonergic receptors.
(§2) Radioligand Binding Analysis of Potential Interactions between
(§3) Select Ampakines and Select Neurotransmitter Receptors

AMPA receptors = assay: Field EPSP amplitude in rat hippocampal slices; assay type: cell-based; details: field CA1, read-out: EC50 values to increase the amplitude of the field EPSP
Procedure: The physiological effects of Ampakines may be tested in vitro with slices of rat hippocampus according to the following procedure. Excitatory responses (field EPSPs) are measured in hippocampal slices, which are maintained in a recording chamber continuously perfused with artificial cerebrospinal fluid (ACSF). During a 15-30 minute interval, the perfusion medium is switched to one containing various concentrations of the test compounds. Responses collected immediately before and at the end of drug perfusion were superimposed in order to calculate both the percent increase in EPSP amplitude and percent increase in the width of the response at one-half the peak height (half-width). […]
Current pulses (0.1 msec) through the stimulating electrode activate a population of the Schaffer-commissural (SC) fibers which arise from neurons in the field CA3 and terminate in synapses on the dendrites of CA1 neurons. […] This current results in a voltage in the extracellular space (the field excitatory post-synaptic potential or field "EPSP") which is recorded by a high impedance recording electrode positioned in the middle of the stratum radiatum of CA1. […]

Muscarinic receptor = assay: Radioligand binding, [^3 H]-QNB
Source text: as §1, §2, §3

Serotoninergic receptor = assay: Radioligand binding, [^3 H]-dLSD
Source text: as §1, §2, §3

[1] = tested on: methamphetamine-induced locomotor activity; assay: Methamphetamine-induced locomotor activity / crossing (photobeam system); details: for Percent Reduction in Methamphetamine Induced Activity: Crossing: Table 1; for reduction of METH LMA: text of Example 3, locomotor activity, haloperidol 0.06 mg/kg, combination p<0.005 vs METH+HAL
Source text: (§4) In the present experiments, male Sprague-Dawley rats (250-300 g; Charles River Laboratories) were given ad libitum food and water and maintained on a 12:12 hr light:dark cycle with lights on at 6:00 AM. […] Locomotor and rearing activities were continuously monitored by computer for all ten test cages. Test cages (with photobeam arrays) were placed in a partially darkened room with room ventilation as background noise. On the test day, naive rats were initially placed in the test cages and baseline behavioral activity in the novel environment was monitored during a 30-minute acclimation period. The rats were then injected (i.p.) with vehicle or drug(s) dissolved in vehicle and immediately returned to the test cage and monitored undisturbed for 90 minutes.
(§5) Behavioral experiments were repeated at least twice for each condition. Photobeam breaks were summed by the computer into ten-minute periods for analysis. Group means and standard errors are reported in the figures; means and standard deviations were used for statistical analysis by unpaired, two-tailed t test assuming unequal variance.

[2] = tested on: methamphetamine-induced rearing activity; assay: Methamphetamine-induced stereotypic rearing activity (photobeam system); details: for total cumulative rearing activity during the 90 minute period after drug administration: FIG. 2, METH 2 mg/kg in all, combination p<0.0005 vs METH+clozapine, saline 56±9; for total cumulative rearing activity during the 90 minute period after drug administration / total rearing activity during the 90 minute test period: i.p., mean±standard error; for reduction of methamphetamine-induced rearing activity: FIG. 3 legend; for total rearing activity during the 90 minute test period: FIG. 4, METH in all, combination p<0.0005 vs METH+HAL, saline 53±11; for Percent Reduction in Methamphetamine Induced Activity: Rearing: Table 1; for reduction of METH-induced rearing: risperidone 0.1 mg/kg, combination p<0.01 vs METH+RISP
Source text: as §4, §5

Dopaminergic receptor = assay: Radioligand binding, [^3 H]-Spiperone
Source text: as §1, §2, §3

[3] = tested on: AMPA-type glutamate receptors; assay: Specificity for AMPA-type glutamate receptors
Source text: as §1

D2 dopamine receptor = details: typical antipsychotics; cited from earlier work
dopamine receptors = details: atypical antipsychotics; cited from earlier work
serotonin receptors = details: atypical antipsychotics; cited from earlier work
[4] = peripheral administration in humans; Guenzi and Zanetti; cited from earlier work
[5] = tested on: fast synaptic potentials in hippocampus; details: metabolite of aniracetam; cited from earlier work
behavior in animals = details: Freed et al.; cited from earlier work
psychotic symptoms = details: cited from earlier work; for effect on symptoms in patients: Lahti et al.; for effect in volunteers: Krystal et al.
[6] = clozapine 1 mg/kg experiment, CX516 10 mg/kg
[7] = fluphenazine 0.2 mg/kg experiment, CX516 10 mg/kg
[8] = haloperidol 0.06 mg/kg experiment, CX516 30 mg/kg
[9] = risperidone 0.1 mg/kg experiment, CX516 10 mg/kg
[10] = clozapine 1.0 mg/kg, CX516 10 mg/kg
[11] = clozapine experiment, METH 2 mg/kg i.p., clozapine 1.0 mg/kg, CX516 10 mg/kg
[12] = haloperidol experiment, HAL 0.06 mg/kg, CX516 30 mg/kg
[13] = text of Example 2, CX516 10 mg/kg

In the case of `O=C(c1ccc2nccnc2c1)N1CCCCC1` [CX516, 1-(Quinoxalin-6-ylcarbonyl)piperidine], the “% Inhibition of ligand binding” value (Adrenergic receptor; 1E-5 Molar) is reported as -0.2%, the “% Inhibition of ligand binding” value (Adrenergic receptor; 1E-7 Molar) is reported as -3.5% and the “% Inhibition of ligand binding” value (Adrenergic receptor; 1E-9 Molar) is reported as 0.0%. For the same compound, the EC50 (AMPA receptors) was 180 µM, the “% Inhibition of ligand binding” value (Muscarinic receptor; 1E-5 Molar) was 5.3% and the “% Inhibition of ligand binding” value (Muscarinic receptor; 1E-7 Molar) was 0.4%. The “% Inhibition of ligand binding” value (Muscarinic receptor; 1E-9 Molar) was 5.5%, the “% Inhibition of ligand binding” value (Serotoninergic receptor; 1E-5 Molar) was 9.1% and the “% Inhibition of ligand binding” value (Serotoninergic receptor; 1E-7 Molar) was 9.9%. For the same compound, the “% Inhibition of ligand binding” value (Serotoninergic receptor; 1E-9 Molar) was 5.5%, the “Percent Reduction in Methamphetamine Induced Activity: Crossing” value (from here on “Percent Reduction … Crossing”) [1, 6] was -32% and the “Percent Reduction … Crossing” value [1, 7] was 47%. The “Percent Reduction … Crossing” value [1, 8] was 10%, the “Percent Reduction … Crossing” value [1, 9] was 0% and the “reduction of METH LMA” value ([1]; CX516 30 mg/kg) was 10%. The “total cumulative rearing activity during the 90 minute period after drug administration” value [2, 10] was 495±78, the “reduction of methamphetamine-induced rearing activity” value ([2]; CX516 30 mg/kg, HAL 0.06 mg/kg) was 23% and the “total rearing activity during the 90 minute test period” value ([2]; HAL 0.06 mg/kg, CX516 30 mg/kg) was 863±169. For the same compound, the “Percent Reduction in Methamphetamine Induced Activity: Rearing” value (shortened to “Percent Reduction … Rearing”) [2, 6] was 34%, the “Percent Reduction … Rearing” value [2, 7] was 37% and the “Percent Reduction … Rearing” value [2, 8] was 23%. The “Percent Reduction … Rearing” value [2, 9] was 28%, the “effect on methamphetamine-induced rearing” value [2, 11] was “synergistically enhanced the antagonistic activity of clozapine; also recorded: synergistically enhances clozapine antagonism of methamphetamine-induced rearing activity; also recorded: small, but statistically insignificant antagonism of methamphetamine-induced rearing” and the “effect on methamphetamine-induced rearing” value [2, 12] was “modest, non-significant antagonism; also recorded: synergistically enhances haloperidol antagonism of methamphetamine-induced stereotypic rearing activity; also recorded: Neither CX516 (30 mg/kg) nor HAL (0.06 mg/kg) significantly reduced methamphetamine-induced rearing activity”. The “reduction of METH-induced rearing” value [2, 13] was 28%, the “antagonism of METH-induced rearing activity” value ([2]; text of Example 2, clozapine 1.0 mg/kg alone, CX516 10 mg/kg alone) was 34% and the “reduction of METH-induced stereotypic rearing activity” value ([2]; text of Example 3, haloperidol 0.06 mg/kg, CX516 30 mg/kg, combination p<0.0005 vs haloperidol alone) was 22%. The “% Inhibition of ligand binding” value (Dopaminergic receptor; 1E-5 Molar) was -2.8%, the “% Inhibition of ligand binding” value (Dopaminergic receptor; 1E-7 Molar) was 0.6% and the “% Inhibition of ligand binding” value (Dopaminergic receptor; 1E-9 Molar) was -5.1%. For the same compound, the “specificity for AMPA-type glutamate receptors” value [3] was “quite specific for AMPA-type glutamate receptors”.
With `O=C(c1ccc2nonc2c1)N1CCCCC1` [CX691] the “% Inhibition of ligand binding” value (Adrenergic receptor; 1E-4 Molar) was 7.0%, the “% Inhibition of ligand binding” value (Adrenergic receptor; 1E-7 Molar) was -7.5% and the EC50 (AMPA receptors) was 3 µM. For the same compound, the “% Inhibition of ligand binding” value (Muscarinic receptor; 1E-4 Molar) was -3.7%, the “% Inhibition of ligand binding” value (Muscarinic receptor; 1E-7 Molar) was -8.0% and the “% Inhibition of ligand binding” value (Serotoninergic receptor; 1E-4 Molar) was 27.0%. For the same compound, the “% Inhibition of ligand binding” value (Serotoninergic receptor; 1E-7 Molar) was 1.6%, the “% Inhibition of ligand binding” value (Dopaminergic receptor; 1E-4 Molar) was 10.7% and the “% Inhibition of ligand binding” value (Dopaminergic receptor; 1E-7 Molar) was 6.1%. The “specificity for AMPA-type glutamate receptors” value [3] was “quite specific for AMPA-type glutamate receptors”.
For `OCCN1CCN(CCCN2c3ccccc3Sc3ccc(C(F)(F)F)cc32)CC1` [Fluphenazine, reference compound], the “Percent Reduction … Crossing” value [1, 7] is given as 54%, the “Percent Reduction … Rearing” value [2, 7] is given as 57% and the “D2 dopamine receptor antagonism” value (D2 dopamine receptor) is given as “potently antagonize the D2 dopamine receptor”.
In the case of `O=C(CCCN1CCC(O)(c2ccc(Cl)cc2)CC1)c1ccc(F)cc1` [Haloperidol, reference compound], the “Percent Reduction … Crossing” value [1, 8] is reported as 9%, the “reduction of METH LMA” value ([1]; CX516 30 mg/kg) is reported as 9% and the “reduction of methamphetamine-induced rearing activity” value ([2]; CX516 30 mg/kg, HAL 0.06 mg/kg) is reported as 16%. For the same compound, the “total rearing activity during the 90 minute test period” value ([2]; HAL 0.06 mg/kg, CX516 30 mg/kg) was 934±119, the “Percent Reduction … Rearing” value [2, 8] was 16% and the “effect on methamphetamine-induced rearing” value [2, 12] was “modest, non-significant antagonism”. For the same compound, the “effect on methamphetamine-induced rearing” value ([2]; haloperidol experiment, HAL 0.06 mg/kg, CX516 30 mg/kg, listed as HAL) was “Neither CX516 (30 mg/kg) nor HAL (0.06 mg/kg) significantly reduced methamphetamine-induced rearing activity” and the “D2 dopamine receptor antagonism” value (D2 dopamine receptor) was “potently antagonize the D2 dopamine receptor”.
With `CN[C@@H](C)Cc1ccccc1` [METH, S-(+)-methamphetamine HCl, reference compound] the “total cumulative rearing activity during the 90 minute period after drug administration” value [2, 10] was 724±136, the “total rearing activity during the 90 minute test period” value ([2]; HAL 0.06 mg/kg, CX516 30 mg/kg) was 1105±161 and the “effect on methamphetamine-induced rearing” value [2, 11] was “large induction of rearing activity”.
For `Cc1nc2n(c(=O)c1CCN1CCC(c3noc4cc(F)ccc34)CC1)CCCC2` [Risperidone, reference compound], the dopamine receptor antagonism (dopamine receptors) is given as “relatively potent antagonists at dopamine receptors”, the serotonin receptor antagonism (serotonin receptors) is given as “potent antagonists at serotonin receptors” and the “Percent Reduction … Crossing” value [1, 9] is given as 43%. For the same compound, the “Percent Reduction … Rearing” value [2, 9] was 51% and the “reduction of METH-induced rearing” value [2, 13] was 51%.
For `COc1ccc(C(=O)N2CCCC2=O)cc1` [aniracetam, N-anisoyl-2-pyrrolidinone], the “fraction of drug converted to anisoyl-GABA” value [4] is listed as “about 80%”.
For `COc1ccc(C(=O)NCCCC(=O)O)cc1` [anisoyl-GABA], the aniracetam-like effects [5] is given as “only weak aniracetam-like effects”.
For `CN(C)CCCN1c2ccccc2Sc2ccc(Cl)cc21` [chlorpromazine], the “D2 dopamine receptor antagonism” value (D2 dopamine receptor) is given as “potently antagonize the D2 dopamine receptor”.
In the case of `CNC1(c2ccccc2Cl)CCCCC1=O` (centres unmarked) [ketamine], the “effect on behavior in animals” value (behavior in animals) is listed as “produce aberrant behavior in animals”, the “effect on symptoms in patients” value (psychotic symptoms) is listed as “exacerbate symptoms in patients” and the effect in volunteers (psychotic symptoms) is listed as “produce a range of psychotic symptoms in volunteers”.
For `Cc1cc2c(s1)Nc1ccccc1N=C2N1CCN(C)CC1` [olanzapine], the dopamine receptor antagonism (dopamine receptors) is given as “relatively potent antagonists at dopamine receptors” and the serotonin receptor antagonism (serotonin receptors) is given as “potent antagonists at serotonin receptors”.
For `c1ccc(C2(N3CCCCC3)CCCCC2)cc1` [phencyclidine], the “effect on behavior in animals” value (behavior in animals) is listed as “produce aberrant behavior in animals”, the “effect on symptoms in patients” value (psychotic symptoms) is listed as “exacerbate symptoms in patients” and the effect in volunteers (psychotic symptoms) is listed as “produce a range of psychotic symptoms in volunteers”.
